Holding throughout (test): ≥ marks a high value that may be exact or a test limit, other limits are often not marked, values filed in µg/mL are converted to µM
Test [1] relates to Escherichia coli.
Test [2] deals with Pasteurella multocida.
The subject of test [3] is Bacillus cereus.
Test [4] relates to Leuconostoc lactis.
The test system of test [5] is Listeria innocua.
The subject of test [6] is Staphylococcus aureus.
Test [7] relates to Streptococcus uberis.
Test [8] has as its system Micrococcus luteus.
For test [9], the system named is Staphylococcus epidermidis.
In test [10] the test system is Serratia marcescens.
The subject of test [11] is Candida albicans.
Test [12] deals with Salmonella typhimurium.
For test [13], the system named is Shigella dysenteriae.
The subject of test [14] is Proteus mirabilis.
Test [15] has as its system Pseudomonas aeruginosa.
Test [16] has as its system Klebsiella pneumoniae.

The structures appear in SMILES notation. ≈ marks a conversion by molar mass, not a printed value.

For the compound `CC[C@H](C)[C@H](NC(=O)[C@@H](NC(=O)[C@H](C)NC(=O)[C@H](C)NC(=O)[C@@H](NC(=O)[C@H](CCCCN)NC(=O)[C@H](CCCCN)NC(=O)[C@@H](NC(=O)[C@@H](NC(=O)[C@H](CC(=O)O)NC(=O)[C@H](Cc1ccccc1)NC(=O)[C@H](CC(C)C)NC(=O)CN)C(C)C)[C@@H](C)CC)C(C)C)C(C)C)C(=O)NCC(=O)NCC(=O)N[C@@H](CC(C)C)C(N)=O` [GLFDVIKKVAAVIGGL], the MIC is greater than 62.5 µM in test [1]; no less than 62.5 µM in [2]; 31.3 µM (≈ 50 µg/mL) in test [3]; 3.75 µM (≈ 6 µg/mL) in [4]; no less than 62.5 µM in test [5]; 15.6 µM (≈ 25 µg/mL) in test [6]. Besides, the MIC in test [7] turned out to be 15.6 µM (≈ 25 µg/mL); in [8], 7.5 µM (≈ 12 µg/mL); in test [9], 15.6 µM (≈ 25 µg/mL).

On to `CC(C)C[C@@H]1NC(=O)CNC(=O)[C@H](CO)NC(=O)[C@H](C(C)C)NC(=O)CNC(=O)[C@@H](NC(=O)[C@H](CC(C)C)NC(=O)[C@@H](NC(=O)[C@H](CCCCN)NC(=O)[C@H](CCCCN)NC(=O)CNC(=O)[C@@H](NC(=O)CNC(=O)[C@H](CC(C)C)NC(=O)[C@@H](NC(=O)[C@H](CCCCN)NC(=O)[C@H](CO)NC(=O)[C@H](CC(C)C)NC(=O)[C@H](CC(C)C)NC(=O)CN)C(C)C)C(C)C)C(C)C)CSSC[C@@H](C(=O)O)NC1=O` [GLLSKVLGVGKKVLCGVSGLC], for which the MIC in test [1] is 5 µM (≈ 10.1 µg/mL); in test [10], no less than 98.5 µM; in test [11], 73.9 µM (≈ 150 µg/mL); in test [12], 11.1 µM (≈ 22.5 µg/mL); in test [13], 4.92 µM (≈ 9.99 µg/mL); in test [6], 15 µM (≈ 30.4 µg/mL). Also, the MIC in test [14] is no less than 98.5 µM; in [15], 49.2 µM (≈ 99.9 µg/mL); in [8], 1.23 µM (≈ 2.5 µg/mL); in test [16] it was 4.92 µM (≈ 9.99 µg/mL).

With `CC[C@H](C)[C@H](NC(=O)CNC(=O)[C@H](CCC(=O)O)NC(=O)[C@@H](NC(=O)[C@@H](NC(=O)CNC(=O)[C@H](CO)NC(=O)[C@H](C)NC(=O)[C@H](CC(C)C)NC(=O)[C@H](CC(=O)O)NC(=O)CNC(=O)[C@H](C)NC(=O)[C@H](C)NC(=O)[C@H](CCC(N)=O)NC(=O)[C@H](CCCCN)NC(=O)[C@@H](NC(=O)[C@H](CCCCN)NC(=O)[C@H](CCC(N)=O)NC(=O)[C@H](Cc1c[nH]c2ccccc12)NC(=O)[C@H](CC(C)C)NC(=O)CN)[C@@H](C)CC)[C@@H](C)CC)C(C)C)C(=O)N[C@@H](CCCCN)C(=O)N[C@@H](CO)C(N)=O` [GLWQKIKQAAGDLASGIVEGIKS], the MIC in test [1] was 21.1 µM (≈ 50 µg/mL); in test [2], no less than 42.2 µM; in [3], no less than 42.2 µM; in test [4], no less than 42.2 µM; in [5], no less than 42.2 µM; in [6], greater than 42.2 µM. Also, the MIC in test [7] was no less than 42.2 µM; in [8] it was 10.5 µM (≈ 25 µg/mL); in [9] it was no less than 42.2 µM.

The term MIC denotes the smallest concentration in the dilution series that meets the test's criterion for growth inhibition. Lower therefore signals a more susceptible organism.

Values taken from DBAASP.
